Structures are written as SMILES.

This assay concerns KRAS G12V dependent lung adenocarcinoma cell line, NCI-H441. Description: Cellular pERK (Thr202/Tyr204) FRET/HTRF assay. The format is cell-based. Conditions: Homo sapiens, NCI-H441, cellular pERK (Thr202/Tyr204) HTRF, NCI-H441 cells. The essentials:
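NCI-H441, overnight plating → cpd 1 hr, 37 °C/5% CO2; DMSO neg ctrl. Lyse (phosphatase inhibitors), add donor/acceptor Abs, RT incubation, HTRF read. IC50 by curve fit.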
In the case of `C#Cc1c(F)ccc2cccc(-c3ncc4c(N5CCOC[C@H]6[C@H](F)[C@H]65)nc(OC[C@]56C[C@@H](F)CN5C[C@@H](CN)C6)nc4c3F)c12` [Example 246, ((2R,6R,7aS)-7a-(((7-(8-ethynyl-7-fluoronaphthalen-1-yl)-8-fluoro-4-((1S,7S,8S)-8-fluoro-5-oxa-2-azabicyclo[5.1.0]octan-2-yl)pyrido[4,3-d]pyrimidin-2-yl)oxy)methyl)-6-fluorohexahydro-1H-pyrrolizin-2-yl)methanamine], the IC50 (in general, the concentration at which inhibition is half-maximal) was in the range of 500 to 10000 nM.

Take `[2H]c1cc2cc(N)cc(-c3ncc4c(N5CCOC[C@H]6[C@H](F)[C@H]65)nc(OC([2H])([2H])[C@@]56CCCN5C[C@H](F)C6)nc4c3F)c2c(C#C)c1F` [Example 256, 5-ethynyl-6-fluoro-4-(8-fluoro-4-((1S,7S,8S)-8-fluoro-5-oxa-2-azabicyclo[5.1.0]octan-2-yl)-2-(((2R,7aS)-2-fluorotetrahydro-1H-pyrrolizin-7a(5H)-yl)methoxy-d2)pyrido[4,3-d]pyrimidin-7-yl)naphthalen-7-d-2-amine]: the IC50 was under 50 nM.

Regarding `C#Cc1c(F)ccc2cc(N)cc(-c3ncc4c(N5CCOC[C@H]6[C@H](F)[C@H]65)nc(OC[C@]56C[C@@H](F)CN5C[C@@H](CNC(C)=O)C6)nc4c3F)c12` [Example 257, N-(((2R,6R,7aS)-7a-(((7-(3-amino-8-ethynyl-7-fluoronaphthalen-1-yl)-8-fluoro-4-((1S,7S,8S)-8-fluoro-5-oxa-2-azabicyclo[5.1.0]octan-2-yl)pyrido[4,3-d]pyrimidin-2-yl)oxy)methyl)-6-fluorohexahydro-1H-pyrrolizin-2-yl)methyl)acetamide], the IC50 fell in the range of 50 to 500 nM.

Turning to `C#Cc1c(F)ccc2cc(N)cc(-c3ncc4c(N5CCOC[C@H]6[C@H](F)[C@H]65)nc(OC[C@]56C[C@@H](F)CN5C[C@@H](CN)C6)nc4c3F)c12` [Example 258, 4-(2-(((2R,6R,7aS)-2-(aminomethyl)-6-fluorotetrahydro-1H-pyrrolizin-7a(5H)-yl)methoxy)-8-fluoro-4-((1S,7S,8S)-8-fluoro-5-oxa-2-azabicyclo[5.1.0]octan-2-yl)pyrido[4,3-d]pyrimidin-7-yl)-5-ethynyl-6-fluoronaphthalen-2-amine], the IC50 was 50 to 500 nM.

Consider `C#Cc1c(F)ccc2cc(N)cc(-c3ncc4c(N5CCOC[C@H]6[C@H](F)[C@H]65)nc(OC[C@@]56CC[C@H](C)N5C[C@H](F)C6)nc4c3F)c12` [Example 259, 5-Ethynyl-6-fluoro-4-(8-fluoro-2-(((2R,5S,7aS)-2-fluoro-5-methyltetrahydro-1H-pyrrolizin-7a(5H)-yl)methoxy)-4-((1S,7S,8S)-8-fluoro-5-oxa-2-azabicyclo[5.1.0]octan-2-yl)pyrido[4,3-d]pyrimidin-7-yl)naphthalen-2-amine], for which the 50% inhibitory concentration (IC50) is under 50 nM.

For `[2H]C([2H])(Oc1nc(N2CCOC[C@H]3[C@H](F)[C@H]32)c2cnc(-c3cc(N)cc4ccc(F)c(C#C)c34)cc2n1)[C@@]12CCCN1C[C@H](F)C2` [Example 261, 5-ethynyl-6-fluoro-4-(4-((1S,7S,8S)-8-fluoro-5-oxa-2-azabicyclo[5.1.0]octan-2-yl)-2-(((2R,7aS)-2-fluorotetrahydro-1H-pyrrolizin-7a(5H)-yl)methoxy-d2)pyrido[4,3-d]pyrimidin-7-yl)naphthalen-2-amine], the IC50 is under 50 nM.

In the case of `C#Cc1c(F)ccc2cc(N)cc(-c3ncc4c(N5CCOC[C@H]6[C@H](F)[C@H]65)nc(OC[C@@]56CCCN5C(C)(C)[C@H](F)C6)nc4c3F)c12` [Example 262, 5-ethynyl-6-fluoro-4-(8-fluoro-2-(((2R,7aS)-2-fluoro-3,3-dimethyltetrahydro-1H-pyrrolizin-7a(5H)-yl)methoxy)-4-((1S,7S,8S)-8-fluoro-5-oxa-2-azabicyclo[5.1.0]octan-2-yl)pyrido[4,3-d]pyrimidin-7-yl)naphthalen-2-amine], the IC50 was under 50 nM.

Consider `[2H]C([2H])(Oc1nc(N2CCOC[C@H]3[C@H](F)[C@H]32)c2cnc(-c3cc(NC(C)=O)cc4ccc(F)c(C#C)c34)c(F)c2n1)[C@@]12CCCN1C[C@H](F)C2` [Example 263, N-(5-ethynyl-6-fluoro-4-(8-fluoro-4-((1S,7S,8S)-8-fluoro-5-oxa-2-azabicyclo[5.1.0]octan-2-yl)-2-(((2R,7aS)-2-fluorotetrahydro-1H-pyrrolizin-7a(5H)-yl)methoxy-d2)pyrido[4,3-d]pyrimidin-7-yl)naphthalen-2-yl)acetamide], for which the IC50 lay in the range of 50 to 500 nM.

Regarding `[2H]c1cc(F)c(C#C)c2c(-c3ncc4c(N5CCOC[C@H]6[C@H](F)[C@H]65)nc(OC([2H])([2H])[C@@]56CCCN5C[C@H](F)C6)nc4c3F)cc(N)cc12` [Example 264, 5-ethynyl-6-fluoro-4-(8-fluoro-4-((1S,7S,8S)-8-fluoro-5-oxa-2-azabicyclo[5.1.0]octan-2-yl)-2-(((2R,7aS)-2-fluorotetrahydro-1H-pyrrolizin-7a(5H)-yl)methoxy-d2)pyrido[4,3-d]pyrimidin-7-yl)naphthalen-8-d-2-amine], the IC50 was under 50 nM.

For the molecule `[2H]C([2H])(Oc1nc(N2CCOC[C@H]3[C@H](F)[C@H]32)c2cnc(-c3cc(N)cc4cccc(C#C)c34)c(F)c2n1)[C@@]12CCCN1C[C@H](F)C2` [Example 268, 5-ethynyl-4-(8-fluoro-4-((1S,7S,8S)-8-fluoro-5-oxa-2-azabicyclo[5.1.0]octan-2-yl)-2-(((2R,7aS)-2-fluorotetrahydro-1H-pyrrolizin-7a(5H)-yl)methoxy-d2)pyrido[4,3-d]pyrimidin-7-yl)naphthalen-2-amine], the IC50 is under 50 nM.

Molecule `[2H]C([2H])(Oc1nc(N2CCOC[C@H]3[C@H](F)[C@H]32)c2cnc(-c3cc(N)cc4ccc(F)c(C#C)c34)c(Cl)c2n1)[C@@]12CCCN1C[C@H](F)C2` [Example 269, 4-(8-Chloro-4-((1S,7S,8S)-8-fluoro-5-oxa-2-azabicyclo[5.1.0]octan-2-yl)-2-(((2R,7aS)-2-fluorotetrahydro-1H-pyrrolizin-7a(5H)-yl)methoxy-d2)pyrido[4,3-d]pyrimidin-7-yl)-5-ethynyl-6-fluoronaphthalen-2-amine] had an IC50 of under 50 nM.

As for `[2H]C([2H])(Oc1nc(N2CCOC[C@H]3[C@H](F)[C@H]32)c2cnc(-c3cc(N)c(F)c(C4CC4)c3C(F)(F)F)c(F)c2n1)[C@@]12CCCN1C[C@H](F)C2` [Example 270, 3-cyclopropyl-2-fluoro-5-(8-fluoro-4-((1S,7S,8S)-8-fluoro-5-oxa-2-azabicyclo[5.1.0]octan-2-yl)-2-(((2R,7aS)-2-fluorotetrahydro-1H-pyrrolizin-7a(5H)-yl)methoxy-d2)pyrido[4,3-d]pyrimidin-7-yl)-4-(trifluoromethyl)aniline], the IC50 was 50 to 500 nM.

The molecule `[2H]C([2H])(Oc1nc(N2CCOC[C@H]3[C@H](F)[C@H]32)c2cnc(-c3c(F)c(N)cc(C)c3C(F)(F)F)c(F)c2n1)[C@@]12CCCN1C[C@H](F)C2` [Example 271, 2-fluoro-3-(8-fluoro-4-((1S,7S,8S)-8-fluoro-5-oxa-2-azabicyclo[5.1.0]octan-2-yl)-2-(((2R,7aS)-2-fluorotetrahydro-1H-pyrrolizin-7a(5H)-yl)methoxy-d2)pyrido[4,3-d]pyrimidin-7-yl)-5-methyl-4-(trifluoromethyl)aniline] showed an IC50 of 50 to 500 nM.

Molecule `[2H]C([2H])(Oc1nc(N2CCOC[C@H]3[C@H](F)[C@H]32)c2cnc(-c3cc(N)cc(Cl)c3C(F)(F)F)c(F)c2n1)[C@@]12CCCN1C[C@H](F)C2` [Example 272, 3-chloro-5-(8-fluoro-4-((1S,7S,8S)-8-fluoro-5-oxa-2-azabicyclo[5.1.0]octan-2-yl)-2-(((2R,7aS)-2-fluorotetrahydro-1H-pyrrolizin-7a(5H)-yl)methoxy-d2)pyrido[4,3-d]pyrimidin-7-yl)-4-(trifluoromethyl)aniline] returned an IC50 of under 50 nM.

For `[2H]c1c(F)c(C#C)c2c(-c3ncc4c(N5CCOC[C@H]6[C@H](F)[C@H]65)nc(OC([2H])([2H])[C@@]56CCCN5C[C@H](F)C6)nc4c3F)cc(N)cc2c1[2H]` [Example 273, 5-ethynyl-6-fluoro-4-(8-fluoro-4-((1S,7S,8S)-8-fluoro-5-oxa-2-azabicyclo[5.1.0]octan-2-yl)-2-(((2R,7aS)-2-fluorotetrahydro-1H-pyrrolizin-7a(5H)-yl)methoxy-d2)pyrido[4,3-d]pyrimidin-7-yl)naphthalen-7,8-d2-2-amine], the IC50 was under 50 nM.

For the molecule `[2H]C([2H])(Oc1nc(N2CCOC[C@H]3[C@H](F)[C@H]32)c2cnc(-c3cc(N)cc4ccc(F)c(C#C)c34)c(F)c2n1)[C@@]12CCCN1C[C@H](C#N)C2` [Example 276, (2R,7aS)-7a-(((7-(3-amino-8-ethynyl-7-fluoronaphthalen-1-yl)-8-fluoro-4-((1S,7S,8S)-8-fluoro-5-oxa-2-azabicyclo[5.1.0]octan-2-yl)pyrido[4,3-d]pyrimidin-2-yl)oxy)methyl-d2)hexahydro-1H-pyrrolizine-2-carbonitrile], the IC50 was under 50 nM.

In turn, `C#Cc1c(F)ccc2cc(N)cc(-c3ncc4c(N5CCOC[C@H]6[C@H](F)[C@H]65)nc(OC[C@@]56CCCN5[C@H](C)[C@H](F)C6)nc4c3F)c12` [Example 277, 5-ethynyl-6-fluoro-4-(8-fluoro-2-(((2R,3R,7aS)-2-fluoro-3-methyltetrahydro-1H-pyrrolizin-7a(5H)-yl)methoxy)-4-((1S,7S,8S)-8-fluoro-5-oxa-2-azabicyclo[5.1.0]octan-2-yl)pyrido[4,3-d]pyrimidin-7-yl)naphthalen-2-amine] displayed an IC50 of under 50 nM.

The molecule `C#Cc1c(F)ccc2cc(N)cc(-c3ncc4c(N5CCOC[C@H]6[C@H](F)[C@H]65)nc(OC[C@@]56CCCN5[C@@H](C)[C@H](F)C6)nc4c3F)c12` [Example 278, 5-ethynyl-6-fluoro-4-(8-fluoro-2-(((2R,3S,7aS)-2-fluoro-3-methyltetrahydro-1H-pyrrolizin-7a(5H)-yl)methoxy)-4-((1S,7S,8S)-8-fluoro-5-oxa-2-azabicyclo[5.1.0]octan-2-yl)pyrido[4,3-d]pyrimidin-7-yl)naphthalen-2-amine] had an IC50 of under 50 nM.

For the origin of these results see patent US20250282799A1, “SUBSTITUTED PYRIDO[4,3-d]PYRIMIDINES AS KRAS MODULATORS” (Alterome Therapeutics, Inc., priority 2023, published 2025).
